Here are results for one compound from publication PMC10926482, “BK Channels Are Activated by Functional Coupling With L-Type Ca^2+ Channels in Cricket Myocytes” (Frontiers in Insect Science, 2021).

The test has as its system T1, BK channel (large-conductance Ca2+-activated K+ channel) of cricket oviduct myocytes.
T1 construct: gene slo; native channel in isolated adult female lateral oviduct myocytes; single-channel patch clamp; not molecularly identified; homotetramer expected, auxiliary subunits unknown
Nature of the test: cell-attached single-channel patch clamp, current amplitude, pipette backfill. The class given is cell-based, Gryllus bimaculatus. Conditions: extracellular side; open-channel block; Hill coefficient 1.0; pipette solution 140 mM KCl, 1.6 mM CaCl2, pH 7.4; 22–27°C; counterion not given. From the text:
cell-attached single-channel patch clamp, current amplitude, pipette backfill on BK channel (large-conductance Ca2+-activated K+ channel) of cricket oviduct myocytes | inhibitory effect on the current amplitude of a single BK channel with an IC50 value
(In general: Patch clamp records ionic current or voltage across a cell membrane.)

For the compound `CC[N+](CC)(CC)CC` [TEA, tetraethylammonium], the IC50 (in general, the concentration at which inhibition is half-maximal) came out at 319 ± 68.8 µM.
